Literature values, collected in patent US20220193065A1, “COMPOSITIONS AND METHODS TO TREAT NON-ALCOHOLIC FATTY LIVER DISEASES (NAFLD)” (Coherus Biosciences, Inc., priority 2019, published 2022).

Details: monotherapy; background statement

## Cc1cc(F)c(C(=O)Nc2cccc(-c3nncn3C(C)C)n2)cc1-n1cnc(C2CC2)c1 [selonsertib]
  primary endpoint of the STELLAR-4 phase 3 clinical trial: failed to meet the primary endpoint
